Read-outs that look alike come from different tables or passages of the source. Marks after values point to notes of the source that are not given here.
Test system: DARPP-32
Test: DARPP-32 phosphorylation in mouse brain slices, immunoblotting with phosphorylation state-specific antibodies
Conditions: for phospho-Thr34 DARPP-32 / phospho-Thr75 DARPP-32: prefrontal cortex slices, n=6; for phospho-Thr34 DARPP-32: 2 min of incubation; for phospho-Thr75 DARPP-32: 10 min of incubation
[1] = neostriatal slices, compound at 100 μM, 2 min incubation, vehicle control = 100
[2] = neostriatal slices, compound at 100 μM, 10 min incubation, vehicle control = 100
[3] = Mus musculus, 2 min, read-out: Percent Phospho-Thr34
[4] = Mus musculus, 10 min, read-out: Percent Phospho-Thr75
[5] = Mus musculus, 2 min, read-out: Percent Phospho-Ser137
[6] = neostriatal slices, compound at 10 μM, 2 min incubation
[7] = neostriatal slices, compound at 10 μM, 10 min incubation
[8] = neostriatal slices, compound at 300 μM, 2 min incubation

COc1cc(CC(C)N)c(OC)cc1I.Cl (racemic) [DOI, (±)-2,5-dimethoxy-4-iodoamphetamine hydrochloride; (±)-1-(2,5 dimethoxy-4-iodophenyl)-2-aminopropane]
Percent Phospho-Ser137 [1]: 158(8.3)* Percent
Percent Phospho-Thr34 [1]: 144(16.7) Percent
Percent Phospho-Thr75 [2]: 105(4.5) Percent
EC50 (read-out: EC50 at phospho-Ser137 DARPP-32, neostriatal slices): 18.2 µM

COc1ccc2[nH]cc(CCN)c2c1 [5-MT, 5-methoxytryptamine]
activity at 100 µM [3]: 261 ± 31%
activity at 100 µM [4]: 76 ± 7%
Percent Phospho-Thr34 [1]: 261(31.5)* Percent
Percent Phospho-Thr75 [2]: 76(7.6)* Percent

Clc1cccc(SC2CCNCC2)n1 [Anpirtoline]
activity at 100 µM [5]: 93%
activity at 100 µM [3]: 86%
activity at 100 µM [4]: 102%

NCCNS(=O)(=O)c1ccc(Cl)c2ccncc12 [CK1-7]
Percent Phospho-Ser137 [1]: 87(4.0)* Percent
Percent Phospho-Thr34 [1]: 102(11.5) Percent
Percent Phospho-Thr75 [2]: 96(10.0) Percent

CN1CCN(C2=Nc3cc(Cl)ccc3Nc3ccccc32)CC1 [Clozapine]
activity at 10 µM [5]: 105%
activity at 10 µM [3]: 124%
activity at 10 µM [4]: 101%

CCc1[nH]c2ccc(OC)cc2c1CCN(C)C [EMDT, 2-ethyl-5-methoxy-N,N-dimethyltryptamine]
EC50 (Mus musculus, 2 min, read-out: EC50 for effect on DARPP-32 phosphorylation at Thr34): 20.5 µM
EC50 (Mus musculus, 10 min, read-out: EC50 for effect on DARPP-32 phosphorylation at Thr75): 27.4 µM
phospho-Thr34 DARPP-32: 185±19%
phospho-Thr75 DARPP-32: 80±17%

O=C(c1ccc(F)cc1)C1CCN(CCn2c(=O)[nH]c3ccccc3c2=O)CC1 [Ketanserin]
activity at 10 µM [5]: 97%
activity at 10 µM [3]: 94%
activity at 10 µM [4]: 105%

c1ccc2sc(N3CCN(Cc4ccc5c(c4)OCO5)CC3)nc2c1 [PPB, 2-[1-(4-Piperonyl)piperazinyl]benzothiazole]
Percent Phospho-Ser137 [1]: 108(2.0) Percent
Percent Phospho-Thr34 [1]: 218(36.1)* Percent
Percent Phospho-Thr75 [2]: 72(8.8)* Percent
phospho-Thr34 DARPP-32: 203±15%
phospho-Thr75 DARPP-32: 84±4%

CCN1CCC[C@H]1CNC(=O)c1c(O)c(Cl)cc(Cl)c1OC [Raclopride]
activity at 10 µM [5]: 101%
activity at 10 µM [3]: 150%
activity at 10 µM [4]: 85%

CNc1cc(NS(=O)(=O)c2ccc(N)cc2)nc(NC)n1 [Ro 07-6790]
Percent Phospho-Ser137 [6]: 105(7.3) Percent
Percent Phospho-Thr34 [6]: 90(8.7) Percent
Percent Phospho-Thr75 [7]: 101(12.5) Percent

Nc1ncnc2c1ncn2[C@@H]1O[C@@H]2CO[P@@](O)(=S)O[C@H]2[C@H]1O [RpcAMPs]
Percent Phospho-Ser137 [8]: 108(10.0) Percent
Percent Phospho-Thr34 [8]: 88(13.1) Percent
Percent Phospho-Thr75 (neostriatal slices, compound at 300 μM, 10 min incubation): 105(7.2) Percent

CN1CCc2cc(Cl)c(O)cc2[C@@H](c2ccccc2)C1 [SCH23390]
activity at 10 µM [3]: 76%
activity at 10 µM [4]: 109%

CCN(CC)CCOC(=O)c1cc(Cl)c(N)cc1OC [SDZ205,557]
Percent Phospho-Ser137 [6]: 102(8.8) Percent
Percent Phospho-Thr34 [6]: 94(16.7) Percent
Percent Phospho-Thr75 [7]: 103(17.5) Percent

C=CCN1CCc2c(cc(O)c(O)c2Cl)C(c2ccccc2)C1 (stereo not shown) [SKF 82958]
activity at 10 µM [5]: 115%
activity at 10 µM [3]: 552%
activity at 10 µM [4]: 65%

NC1CCN(c2cccc(Cl)n2)CC1 [SR 57227]
Percent Phospho-Ser137 [1]: 105(9.6) Percent
Percent Phospho-Thr34 [1]: 78(3.5)* Percent
Percent Phospho-Thr75 [2]: 88(4.8) Percent

NC1=N[C@H](O)[C@H]2[C@H]3O[C@]4(O)O[C@@H]([C@@H](O)[C@@]2(N1)[C@@H]4O)[C@]3(O)CO [Tetrodotoxin]
Percent Phospho-Ser137: 98(12.5) Percent
Percent Phospho-Thr34: 91.8(5.8) Percent
Percent Phospho-Thr75: 103(3.5) Percent

COc1ccc2c(c1)CC[C@@H]1[C@@H]2CC[C@]2(C)[C@@H](NCCCCCCN3C(=O)C=CC3=O)CC[C@@H]12 [U-73122]
Percent Phospho-Ser137 [6]: 86(6.2)* Percent
Percent Phospho-Thr34 [6]: 117(10.9) Percent
Percent Phospho-Thr75 [7]: 90(6.6) Percent

— US7320785B2, “Compositions and methods for modulation of DARPP-32 phosphorylation” (The Rockefeller University, priority 2001, dated 2008)
